Results: ChEMBL document CHEMBL1268985, “Syntheses of fluorescent imidazoquinoline conjugates as probes of Toll-like receptor 7” (Bioorg Med Chem Lett, 2010)

Assays:
[1] = molecular target: T1, Toll-like receptor 7 (Homo sapiens, UniProt Q9NYK1); experiment: Agonist activity at human TLR7 expressed in HEK-Blue-7 cells assessed as increase in NF-kappaB activation by sAP assay; type: functional, cell-based
T1 sequence (Q9NYK1 whole entry): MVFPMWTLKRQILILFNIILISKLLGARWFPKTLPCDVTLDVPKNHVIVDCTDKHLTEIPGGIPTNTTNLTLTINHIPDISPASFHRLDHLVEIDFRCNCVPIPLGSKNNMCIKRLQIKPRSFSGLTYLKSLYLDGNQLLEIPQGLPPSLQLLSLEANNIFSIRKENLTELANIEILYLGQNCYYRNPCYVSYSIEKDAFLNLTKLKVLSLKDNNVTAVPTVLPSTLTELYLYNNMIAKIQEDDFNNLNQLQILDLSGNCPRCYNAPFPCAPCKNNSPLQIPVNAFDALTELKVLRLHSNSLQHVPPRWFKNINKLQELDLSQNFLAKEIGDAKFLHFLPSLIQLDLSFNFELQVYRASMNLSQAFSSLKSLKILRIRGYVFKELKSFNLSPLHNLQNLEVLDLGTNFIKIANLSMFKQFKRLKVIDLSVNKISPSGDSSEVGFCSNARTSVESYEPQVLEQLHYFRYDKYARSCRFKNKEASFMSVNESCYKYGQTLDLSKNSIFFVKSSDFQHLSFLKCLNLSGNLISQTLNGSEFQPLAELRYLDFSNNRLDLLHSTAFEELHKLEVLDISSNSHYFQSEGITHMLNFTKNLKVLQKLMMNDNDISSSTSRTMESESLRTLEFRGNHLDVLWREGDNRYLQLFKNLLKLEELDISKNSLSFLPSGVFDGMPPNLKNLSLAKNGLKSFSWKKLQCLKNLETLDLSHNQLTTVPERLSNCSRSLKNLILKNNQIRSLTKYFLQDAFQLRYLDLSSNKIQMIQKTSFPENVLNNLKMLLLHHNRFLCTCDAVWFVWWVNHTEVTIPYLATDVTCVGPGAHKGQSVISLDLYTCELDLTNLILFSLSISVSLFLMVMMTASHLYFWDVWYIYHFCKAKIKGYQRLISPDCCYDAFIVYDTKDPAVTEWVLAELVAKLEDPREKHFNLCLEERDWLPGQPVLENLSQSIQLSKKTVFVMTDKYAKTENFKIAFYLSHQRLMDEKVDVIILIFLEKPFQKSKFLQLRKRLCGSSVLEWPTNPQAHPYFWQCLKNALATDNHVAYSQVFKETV

[2] = Drug uptake in human CD3-/CD56+ natural killer cells treated for 30 mins by flow cytometry; type: ADME; conditions: nk cell, 0.5 h
[3] = Drug uptake in human CD3-/CD56- B lymphocytes treated for 30 mins by flow cytometry; type: ADME, cell-based; conditions: b-cell, 0.5 h
[4] = Drug uptake in human CD3+/CD56- T lymphocytes treated for 30 mins by flow cytometry; type: ADME, cell-based; conditions: t-cell, 0.5 h
[5] = Drug uptake in mouse J774.1 cells assessed as perinuclear localization at 100 nM by confocal fluorescence microscopy; type: ADME, cell-based; conditions: j774.1, 0.1 µM

EC50 [1] [µM]	Drug uptake [3]	Drug uptake [4]	Drug uptake [5]	Structure (SMILES)	Drug uptake [2]
0.115	–	–	–	CCCCc1nc2c(N)nc3ccccc3c2n1Cc1ccc(CNC(=S)Nc2ccc(-c3c4ccc(=[N+](CC)CC)cc-4oc4cc(N(CC)CC)ccc34)c(C(=O)O)c2)cc1	–
0.247	Active	Active	–	CCCCc1nc2c(N)nc3ccccc3c2n1Cc1ccc(CNC(=S)Nc2cccc(-c3c4ccc(=O)cc-4oc4cc(O)ccc34)c2C(=O)O)cc1	Active
0.396	–	–	–	CCCCc1nc2c(N)nc3ccccc3c2n1Cc1cccc2ccccc12	–
0.108	–	–	Active	CCCCc1nc2c(N)nc3ccccc3c2n1Cc1ccc(CNC(=S)NCCCCCNC(=O)COc2ccc(C3=[N+]4C(=Cc5ccc(-c6cccs6)n5[B-]4(F)F)C=C3)cc2)cc1	–
